Literature values, collected in publication PMC12221116, “Novel Quinazolinones Active against Multidrug‐Resistant Mycobacterium Tuberculosis: Synthesis, Antimicrobial Evaluation, and in Silico Exploration of Penicillin‐Binding Protein 1A as a Potential Target” (Chemmedchem, 2025).
Several values for one entry are separate records, joined by “and”; a condition that tells them apart may be missing. Identical values can stand only once.

Key:
Replicative DNA helicase = biological target: Replicative DNA helicase; parameters: method as in ChEMBL; conditions: target CHEMBL1741192; ref ChEMBL; cited from earlier work
Protein RecA = system: Protein RecA; parameters: method as in ChEMBL; conditions: target CHEMBL1741171; ref ChEMBL; cited from earlier work

O=c1c2ccccc2nc(/C=C/c2cccnc2)n1Cc1ccccc1 [CHEMBL1567670]
AC50 (Replicative DNA helicase): 13.6 µM and 9.29 µM | EC50 (Protein RecA): 9.92 µM
